Results reported in ChEMBL document CHEMBL1130776, “Synthesis and biological activity of 3-substituted 3-desoxynaltrindole derivatives” (Bioorg Med Chem Lett, 1998).

Tests used:
[1] = target: Delta-type opioid receptor (Rattus norvegicus, UniProt P33533); experiment: Compound was tested for its ability to displace [3H]DADLE from delta receptor in rat brain.; assay type: tissue-based
[2] = target: Kappa-type opioid receptor (Cavia porcellus, UniProt P41144); experiment: Compound was tested for its ability to displace [3H]U-69593 from kappa receptor in guinea pig brain.
Kappa-type opioid receptor, sequence (P41144 whole entry): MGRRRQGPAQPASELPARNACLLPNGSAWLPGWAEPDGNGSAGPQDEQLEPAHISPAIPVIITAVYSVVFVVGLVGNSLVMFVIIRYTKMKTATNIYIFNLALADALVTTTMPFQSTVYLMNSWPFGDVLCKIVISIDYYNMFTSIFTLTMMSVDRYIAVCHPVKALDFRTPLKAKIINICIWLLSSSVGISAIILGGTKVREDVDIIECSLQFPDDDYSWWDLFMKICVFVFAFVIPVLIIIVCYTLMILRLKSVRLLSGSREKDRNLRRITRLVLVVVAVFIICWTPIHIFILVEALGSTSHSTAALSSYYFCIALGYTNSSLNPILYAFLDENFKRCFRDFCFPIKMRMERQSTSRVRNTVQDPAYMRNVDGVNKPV

[3] = target: Mu-type opioid receptor (Rattus norvegicus, UniProt P33535); experiment: Compound was tested for its ability to displace [3H]DAMGO from mu receptor in rat brain.; assay type: tissue-based
Mu-type opioid receptor, sequence (P33535 whole entry): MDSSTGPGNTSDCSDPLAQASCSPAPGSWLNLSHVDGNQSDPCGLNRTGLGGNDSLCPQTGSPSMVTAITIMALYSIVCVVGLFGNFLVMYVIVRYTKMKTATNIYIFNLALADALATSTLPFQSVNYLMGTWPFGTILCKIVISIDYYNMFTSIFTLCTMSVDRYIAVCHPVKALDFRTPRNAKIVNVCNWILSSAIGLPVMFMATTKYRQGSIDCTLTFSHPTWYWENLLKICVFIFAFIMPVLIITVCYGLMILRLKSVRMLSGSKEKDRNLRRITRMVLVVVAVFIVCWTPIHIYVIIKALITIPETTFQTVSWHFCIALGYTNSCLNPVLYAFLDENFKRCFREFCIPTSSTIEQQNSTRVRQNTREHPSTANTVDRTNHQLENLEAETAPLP

Delta-type opioid receptor, sequence (P33533 whole entry): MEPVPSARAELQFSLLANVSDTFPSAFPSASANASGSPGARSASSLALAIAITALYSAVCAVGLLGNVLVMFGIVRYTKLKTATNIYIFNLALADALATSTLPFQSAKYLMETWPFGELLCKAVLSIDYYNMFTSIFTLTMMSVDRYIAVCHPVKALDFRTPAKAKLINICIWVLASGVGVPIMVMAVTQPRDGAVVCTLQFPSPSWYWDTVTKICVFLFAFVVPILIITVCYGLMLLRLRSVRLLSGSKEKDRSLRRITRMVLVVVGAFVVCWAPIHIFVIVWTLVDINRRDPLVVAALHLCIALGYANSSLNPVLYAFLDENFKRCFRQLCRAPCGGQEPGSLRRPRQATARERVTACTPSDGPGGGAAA

| Compound | Ki [1] | Ki [2] | Ki [3] |
| --- | --- | --- | --- |
| Oc1cccc(-c2ccc3c4c2O[C@H]2c5[nH]c6ccccc6c5C[C@@]5(O)[C@@H](C3)N(CC3CC3)CC[C@]425)c1 | 1.61 µM | > 6.8 µM | > 5.68 µM |
| C=Cc1ccc2c3c1O[C@H]1c4[nH]c5ccccc5c4C[C@@]4(O)[C@@H](C2)N(CC2CC2)CC[C@]314 | 0.061 µM | 17.6 µM | > 5.68 µM |
| COc1cccc(-c2ccc3c4c2O[C@H]2c5[nH]c6ccccc6c5C[C@@]5(O)[C@@H](C3)N(CC3CC3)CC[C@]425)c1 | > 6.67 µM | > 6.8 µM | > 5.68 µM |
| O[C@@]12Cc3c([nH]c4ccccc34)[C@@H]3Oc4c(-c5ccco5)ccc5c4[C@@]31CCN(CC1CC1)[C@@H]2C5 | 0.959 µM | > 6.8 µM | > 5.68 µM |
| Oc1ccc2c3c1O[C@H]1c4[nH]c5ccccc5c4C[C@@]4(O)[C@@H](C2)N(CC2CC2)CC[C@]314 [NALTRINDOLE] | 0.000217 µM | 0.0304 µM |  |
| O[C@@]12Cc3c([nH]c4ccccc34)[C@@H]3Oc4c(-c5ccccc5)ccc5c4[C@@]31CCN(CC1CC1)[C@@H]2C5 | 10.6 µM | > 6.8 µM | > 5.68 µM |
| Cc1ccc2c3c1O[C@H]1c4[nH]c5ccccc5c4C[C@@]4(O)[C@@H](C2)N(CC2CC2)CC[C@]314 | 0.071 µM | > 6.8 µM | > 5.68 µM |
| O[C@@]12Cc3c([nH]c4ccccc34)[C@H]3Oc4cccc5c4[C@@]31CCN(CC1CC1)[C@@H]2C5 | 0.035 µM | 10.9 µM | > 5.68 µM |
